US20240270762A1, “PENICILLIN-BINDING PROTEIN INHIBITORS” (priority 2021, published 2024)
Values after ≈ are worked out from the molar mass of the structure shown. Like-named read-outs stand apart in the source and are kept apart here.

Legend:
Assay in all cases: Liquid broth MIC in Fastidious broth
Settings in all cases: Neisseria gonorrhoeae
[1] = test system: N. gonorrhoeae ATCC 49226
N. gonorrhoeae FA1090 = test system: N. gonorrhoeae FA1090
N. gonorrhoeae MS11 = test system: N. gonorrhoeae MS11
N. gonorrhoeae WHO G = test system: N. gonorrhoeae WHO G
Method: Additional antibacterial testing of the series was performed in 8 reference strains of N. gonorrhoeae (ATCC 49226, FA1090, MS 11, WHO G, WHO L, WHO M, WHO K, WHO X, WHO Z, WHO Q, CDC-0197). ATCC 49226, FA1090, MS11, WHO G, WHO L, and WHO M produce wild type or wild-type like PBP2. WHO K, WHO X, WHO Z, WHO Q, and CDC-0197 produce mosaic PBP2. Liquid broth-based assays were used for antibacterial testing of PBP inhibitors in Neisseria gonorrhoeae. Briefly, cryo-preserved bacterial cultures of clinical strains were streaked for isolation on Chocolate Agar (72 g/L (2×) GC Agar Base (BD #228950) and 2% (2×) Hemoglobin was autoclaved at 121° C. for 20 minutes to sterilize. Once cooled to ˜50° C. the 2×GC Agar Base and 2× Hemoglobin solutions are combined and 1% IsoVitaleX Enrichment (BD #211876) was added to the solution). Strains were incubated at 36° C. and 5% CO2 to allow growth of colonies, 24 hours before inoculum preparation. 2-fold serial dilutions of test compounds were conducted in a 96 well plate with a final volume of 75 μL per well at 2-fold the final desired concentration in Fastidious broth (Remel #R07664). For preparation of assay inoculum, a direct suspension was prepared by aseptically swabbing 10-15 colonies from agar plates into culture tubes containing 2 mL of fresh sterile saline. After the dilution plates were set up, direct suspensions were then diluted in a cuvette containing sterile saline and the optical density was measured at 600 nm. Inocula were diluted such that 75 μL of this culture in Fastidious broth results in a starting bacterial concentration of 5×10^5 CFU/mL when added to the dilution plates. The plates were incubated for ˜24 hours at 36° C. and 5% CO2.

N. gonorrhoeae WHO L = test system: N. gonorrhoeae WHO L
N. gonorrhoeae WHO M = test system: N. gonorrhoeae WHO M
N. gonorrhoeae WHO K = test system: N. gonorrhoeae WHO K
N. gonorrhoeae WHO X = test system: N. gonorrhoeae WHO X
N. gonorrhoeae CDC-0197 = test system: N. gonorrhoeae CDC-0197
[2] = ATCC49226, read-out: Minimum Inhibitory Concentration (MIC), N. gonorrhoeae ATCC 49226
[3] = FA1090, read-out: Minimum Inhibitory Concentration (MIC), N. gonorrhoeae FA 1090
[4] = MS11, read-out: Minimum Inhibitory Concentration (MIC), N. gonorrhoeae MS11
[5] = read-out: Minimum Inhibitory Concentration (MIC), N. gonorrhoeae WHO G
[6] = read-out: Minimum Inhibitory Concentration (MIC), N. gonorrhoeae WHO L
[7] = read-out: Minimum Inhibitory Concentration (MIC), N. gonorrhoeae WHO M
[8] = read-out: Minimum Inhibitory Concentration (MIC), N. gonorrhoeae WHO K
[9] = read-out: Minimum Inhibitory Concentration (MIC), N. gonorrhoeae WHO X
[10] = CDC0197, read-out: Minimum Inhibitory Concentration (MIC), N. gonorrhoeae CDC-0197
[11] = ATCC49226, read-out: Minimum Inhibitory Concentration, ATCC 49226
[12] = FA1090, read-out: Minimum Inhibitory Concentration, FA 1090
[13] = MS11, read-out: Minimum Inhibitory Concentration, MS11
[14] = read-out: Minimum Inhibitory Concentration, WHO G
[15] = read-out: Minimum Inhibitory Concentration, WHO L
[16] = read-out: Minimum Inhibitory Concentration, WHO M
[17] = read-out: Minimum Inhibitory Concentration, WHO K
[18] = read-out: Minimum Inhibitory Concentration, WHO X
[19] = CDC0197, read-out: Minimum Inhibitory Concentration, CDC-0197

Compound | MIC [1, 2] [µg/mL] | MIC (N. gonorrhoeae FA1090; [3]) [µg/mL] | MIC (N. gonorrhoeae MS11; [4]) [µg/mL] | MIC (N. gonorrhoeae WHO G; [5]) [µg/mL] | MIC (N. gonorrhoeae WHO L; [6]) [µg/mL] | MIC (N. gonorrhoeae WHO M; [7]) [µg/mL] | MIC (N. gonorrhoeae WHO K; [8]) [µg/mL] | MIC (N. gonorrhoeae WHO X; [9]) [µg/mL] | MIC (N. gonorrhoeae CDC-0197; [10]) [µg/mL] | MIC [1, 11] [µg/mL] | MIC (N. gonorrhoeae FA1090; [12]) [µg/mL] | MIC (N. gonorrhoeae MS11; [13]) [µg/mL] | MIC (N. gonorrhoeae WHO G; [14]) [µg/mL] | MIC (N. gonorrhoeae WHO L; [15]) [µg/mL] | MIC (N. gonorrhoeae WHO M; [16]) [µg/mL] | MIC (N. gonorrhoeae WHO K; [17]) [µg/mL] | MIC (N. gonorrhoeae WHO X; [18]) [µg/mL] | MIC (N. gonorrhoeae CDC-0197; [19]) [µg/mL]
CS(=O)(=O)N1CCN(C(=O)N[C@H](C(=O)N[C@H]2Cc3cccc(C(=O)O)c3OB2O)c2ccc(P(=O)(O)O)cc2)C1=O (single isomer, unassigned) [Example 5] | < 1 | < 1 | < 1 | < 1 | 4 to 8 (≈ 6.55 to 13.1 µM) | < 1 | 1 to 2 (≈ 1.64 to 3.28 µM) | 4 to 8 (≈ 6.55 to 13.1 µM) | < 1 |  |  |  |  |  |  |  |  | 
CS(=O)(=O)N1CCN(C(=O)N[C@@H](C(=O)N[C@H]2Cc3cccc(C(=O)O)c3OB2O)c2ccc(P(=O)(O)O)cc2)C1=O (single isomer, unassigned) [Example 6] | < 1 | < 1 | < 1 | < 1 | < 1 | < 1 | < 1 | < 1 | < 1 |  |  |  |  |  |  |  |  | 
CCN1CCN(C(=O)NC(C(=O)N[C@H]2Cc3cccc(C(=O)O)c3OB2O)c2ccc(P(=O)(O)O)cc2F)C(=O)C1=O (stereo partly drawn) [Example 1, (3R)-3-(2-(4-ethyl-2,3-dioxopiperazine-1-carboxamido)-2-(2-fluoro-4-phosphonophenyl)acetamido)-2-hydroxy-3,4-dihydro-2H-benzo[e][1,2]oxaborinine-8-carboxylic acid] | < 1 | < 1 | < 1 | < 1 | 1 to 2 (≈ 1.65 to 3.3 µM) | < 1 | < 1 | 1 to 2 (≈ 1.65 to 3.3 µM) | < 1 |  |  |  |  |  |  |  |  | 
CCN1CCN(C(=O)NC(C(=O)N[C@H]2Cc3cccc(C(=O)O)c3OB2O)c2cc(P(=O)(O)O)ccc2F)C(=O)C1=O (stereo partly drawn) [Example 2, (3R)-3-(2-(4-ethyl-2,3-dioxopiperazine-1-carboxamido)-2-(2-fluoro-5-phosphonophenyl)acetamido)-2-hydroxy-3,4-dihydro-2H-benzo[e][1,2]oxaborinine-8-carboxylic acid] | 4 to 8 (≈ 6.6 to 13.2 µM) | < 1 | 4 to 8 (≈ 6.6 to 13.2 µM) | 1 to 2 (≈ 1.65 to 3.3 µM) | > 64 | 4 to 8 (≈ 6.6 to 13.2 µM) | 16 to 32 (≈ 26.4 to 52.8 µM) | 16 to 32 (≈ 26.4 to 52.8 µM) | 4 to 8 (≈ 6.6 to 13.2 µM) |  |  |  |  |  |  |  |  | 
NCCN1CCN(C(=O)NC(C(=O)N[C@H]2Cc3cccc(C(=O)O)c3OB2O)c2ccc(P(=O)(O)O)cc2)C(=O)C1=O (stereo partly drawn) [Example 3, (3R)-3-(2-(4-(2-aminoethyl)-2,3-dioxopiperazine-1-carboxamido)-2-(4-phosphonophenyl)acetamido)-2-hydroxy-3,4-dihydro-2H-benzo[e][1,2]oxaborinine-8-carboxylic acid] | < 1 | < 1 | 1 to 2 (≈ 1.66 to 3.32 µM) | < 1 | 4 to 8 (≈ 6.63 to 13.3 µM) | < 1 | 4 to 8 (≈ 6.63 to 13.3 µM) | 4 to 8 (≈ 6.63 to 13.3 µM) | 1 to 2 (≈ 1.66 to 3.32 µM) |  |  |  |  |  |  |  |  | 
O=C(O)c1cccc2c1OB(O)[C@@H](NC(=O)C(NC(=O)N1CCN(CC(F)(F)F)C(=O)C1=O)c1ccc(P(=O)(O)O)cc1)C2 (stereo partly drawn) [Example 4, (3R)-3-(2-(2,3-dioxo-4-(2,2,2-trifluoroethyl)piperazine-1-carboxamido)-2-(4-phosphonophenyl)acetamido)-2-hydroxy-3,4-dihydro-2H-benzo[e][1,2]oxaborinine-8-carboxylic acid] | < 1 | < 1 | < 1 | < 1 | 4 to 8 (≈ 6.23 to 12.5 µM) | < 1 | 1 to 2 (≈ 1.56 to 3.11 µM) | 4 to 8 (≈ 6.23 to 12.5 µM) | 1 to 2 (≈ 1.56 to 3.11 µM) |  |  |  |  |  |  |  |  | 
O=C(NCCCN1CCN(C(=O)NC(C(=O)N[C@H]2Cc3ccc(F)c(C(=O)O)c3OB2O)c2cc(F)c(O)c(O)c2Cl)C1=O)c1cccnc1 (stereo partly drawn) [Example 281, (3R)-3-(2-(2-chloro-5-fluoro-3,4-dihydroxyphenyl)-2-(3-(3-(nicotinamido)propyl)-2-oxoimidazolidine-1-carboxamido)acetamido)-7-fluoro-2-hydroxy-3,4-dihydro-2H-benzo[e][1,2]oxaborinine-8-carboxylic acid] |  |  |  |  |  |  |  |  |  | > 64 | 4 to 8 (≈ 5.58 to 11.2 µM) | > 64 | 16 to 32 (≈ 22.3 to 44.6 µM) | > 64 | 16 to 32 (≈ 22.3 to 44.6 µM) | > 64 | > 64 | > 64
O=C(NCCCN1CCN(C(=O)N[C@H](C(=O)N[C@H]2Cc3ccc(F)c(C(=O)O)c3OB2O)c2cc(F)c(O)c(O)c2Cl)C1=O)Nc1ccc(O)cc1 [Example 283, (R)-3-((S)-2-(2-chloro-5-fluoro-3,4-dihydroxyphenyl)-2-(3-(3-(3-(4-hydroxyphenyl)ureido)propyl)-2-oxoimidazolidine-1-carboxamido)acetamido)-7-fluoro-2-hydroxy-3,4-dihydro-2H-benzo[e][1,2]oxaborinine-8-carboxylic acid] |  |  |  |  |  |  |  |  |  | > 64 | > 64 | > 64 | > 64 | > 64 | > 64 | > 64 | > 64 | > 64
O=C(NCCS(=O)(=O)N1CCN(C(=O)N[C@H](C(=O)N[C@H]2Cc3ccc(F)c(C(=O)O)c3OB2O)c2cc(F)c(O)c(O)c2Cl)C1=O)c1ccc(O)cc1 [Example 286, (R)-3-((S)-2-(2-chloro-5-fluoro-3,4-dihydroxyphenyl)-2-(3-((2-(4-hydroxybenzamido)ethyl)sulfonyl)-2-oxoimidazolidine-1-carboxamido)acetamido)-7-fluoro-2-hydroxy-3,4-dihydro-2H-benzo[e][1,2]oxaborinine-8-carboxylic acid] |  |  |  |  |  |  |  |  |  | > 64 | > 64 | > 64 | > 64 | > 64 | > 64 | > 64 | > 64 | > 64
O=C(NCCS(=O)(=O)N1CCN(C(=O)NC(C(=O)N[C@H]2Cc3ccc(F)c(C(=O)O)c3OB2O)c2cc(F)c(O)c(O)c2Cl)C1=O)c1ccncc1 (stereo partly drawn) [Example 288, (3R)-3-(2-(2-chloro-5-fluoro-3,4-dihydroxyphenyl)-2-(3-((2-(isonicotinamido)ethyl)sulfonyl)-2-oxoimidazolidine-1-carboxamido)acetamido)-7-fluoro-2-hydroxy-3,4-dihydro-2H-benzo[e][1,2]oxaborinine-8-carboxylic acid] |  |  |  |  |  |  |  |  |  | 16 to 32 (≈ 20.9 to 41.7 µM) | 1 to 2 (≈ 1.3 to 2.61 µM) | 4 to 8 (≈ 5.22 to 10.4 µM) | 4 to 8 (≈ 5.22 to 10.4 µM) | > 64 | 4 to 8 (≈ 5.22 to 10.4 µM) | 16 to 32 (≈ 20.9 to 41.7 µM) | > 64 | 16 to 32 (≈ 20.9 to 41.7 µM)
O=C(NCCS(=O)(=O)N1CCN(C(=O)N[C@@H](C(=O)N[C@H]2Cc3ccc(F)c(C(=O)O)c3OB2O)c2cc(F)c(O)c(O)c2Cl)C1=O)Nc1ccncc1 [Example 290, (R)-3-((R)-2-(2-chloro-5-fluoro-3,4-dihydroxyphenyl)-2-(2-oxo-3-((2-(3-(pyridin-4-yl)ureido)ethyl)sulfonyl)imidazolidine-1-carboxamido)acetamido)-7-fluoro-2-hydroxy-3,4-dihydro-2H-benzo[e][1,2]oxaborinine-8-carboxylic acid] |  |  |  |  |  |  |  |  |  | 16 to 32 (≈ 20.5 to 40.9 µM) | 1 to 2 (≈ 1.28 to 2.56 µM) | 16 to 32 (≈ 20.5 to 40.9 µM) | 16 to 32 (≈ 20.5 to 40.9 µM) | > 64 | 16 to 32 (≈ 20.5 to 40.9 µM) | > 64 | > 64 | 16 to 32 (≈ 20.5 to 40.9 µM)
O=C(NCCCS(=O)(=O)N1CCN(C(=O)NC(C(=O)N[C@H]2Cc3ccc(F)c(C(=O)O)c3OB2O)c2cc(F)c(O)c(O)c2Cl)C1=O)Nc1ccncc1 (stereo partly drawn) [Example 291, (3R)-3-(2-(2-chloro-5-fluoro-3,4-dihydroxyphenyl)-2-(2-oxo-3-((3-(3-(pyridin-4-yl)ureido)propyl)sulfonyl)imidazolidine-1-carboxamido)acetamido)-7-fluoro-2-hydroxy-3,4-dihydro-2H-benzo[e][1,2]oxaborinine-8-carboxylic acid] |  |  |  |  |  |  |  |  |  | 16 to 32 (≈ 20.1 to 40.2 µM) | 4 to 8 (≈ 5.03 to 10.1 µM) | 16 to 32 (≈ 20.1 to 40.2 µM) | 16 to 32 (≈ 20.1 to 40.2 µM) | > 64 | 16 to 32 (≈ 20.1 to 40.2 µM) | > 64 | > 64 | 16 to 32 (≈ 20.1 to 40.2 µM)
O=C(O)c1c(F)ccc2c1OB(O)[C@@H](NC(=O)C(NC(=O)N1CCN(Cc3ccc(O)c(O)c3Cl)C(=O)C1=O)c1cc(F)c(O)c(O)c1Cl)C2 (stereo partly drawn) [Example 292, (3R)-3-(2-(4-(2-chloro-3,4-dihydroxybenzyl)-2,3-dioxopiperazine-1-carboxamido)-2-(2-chloro-5-fluoro-3,4-dihydroxyphenyl)acetamido)-7-fluoro-2-hydroxy-3,4-dihydro-2H-benzo[e][1,2]oxaborinine-8-carboxylic acid] |  |  |  |  |  |  |  |  |  | > 64 | 16 to 32 (≈ 21.6 to 43.3 µM) | > 64 | > 64 | > 64 | > 64 | > 64 | > 64 | > 64
